These results are taken from US12653895B2, “Therapeutic conjugates” (Totus Medicines Inc., priority 2019, dated 2026).

The subject of this test is PI3-kinase. The test is described as follows: NanoBRET screening of ARCS in transfected HEK293 cells with washout (covalent binding to and inhibition of PI3-kinase). The note with it: NanoBRET binding assay; key headed Percent inhibition. The test is classed as cell-based. How it is done: Human embryonic kidney 293-H (HEK 293, Gibco 293-H, #11631017) cell lines are maintained in Dulbecco's Modified Eagle Medium, high glucose, pyruvate (DMEM, Gibco, #11995065) supplemented with 10% fetal bovine serum (FBS, Gibco, #10082147) and 1× penicillin-streptomycin (100× solution, Gibco, #15140148) at 37° C. and 5% CO2 in a water-saturated incubator. Cell are trypsinized using 0.05% or 0.25% Trypsin-EDTA solution (Trypsin-EDTA, phenol red, Gibco, #25200056 (0.25%) or #25300054). Opti-MEM media supplemented with 10% fetal bovine serum (Opti-MEM I reduced serum media, no phenol red, Gibco, #11058021) is used for culturing cells overnight for NanoBRET readout experiments.
HEK293 cells are cultivated appropriately prior to assay. The medium from cell flask is removed via aspiration, washed 1× with PBS followed by aspiration, trypsinized, and cells are allowed to dissociate from the flask. Trypsin is neutralized using growth medium and cells are pelleted via centrifugation at 200×g for 5 minutes. The medium is aspirated and the cells are resuspended into a single cell suspension using Opti-MEM I supplemented with 10% FBS. The cell density is adjusted to 2×10^5/mL in Opti-MEM I supplemented with 10% FBS in a sterile, conical tube. The cells are transfected and aliquoted directly in a 96-well plate for the NanoBRET assay the next day, and therefore, the cells are cultured overnight in Opti-MEM. The cells are also transfected in bulk and dispensed into a 96-well plate to allow cells to adhere to the plate overnight, thereby enabling washout studies.
The lipid:DNA complexes are prepared as follows:
A 10 μg/mL solution of DNA is prepared in Opti-MEM without serum. This solution contains the following ratios of carrier DNA and DNA encoding NanoLuc fused to the biological target. Serial dilution steps may be warranted to accurately dilute the NanoLuc fusion DNA. Added, in order, the following reagents to a sterile polystyrene test tube: 1 mL of Opti-MEM without phenol red; 9.0 μg/mL of carrier DNA; 1.0 μg/mL of NanoLuc fusion DNA (for some targets, the amount is less). The reagents are mixed thoroughly.
30 μL of FuGENE HD is added into each mL of DNA mixture to form lipid:DNA complex. […] It is mixed by pipetting up and down 5-10 times and incubated at room temperature for 20 minutes to allow complexes to form. 1 part (e.g. 1 mL) of lipid:DNA complex is mixed with 20 parts (e.g. 20 mL) of HEK293 cells in suspension at 2×10^5/mL and mixed gently by pipetting up and down 5 times in a sterile, conical tube. Larger or smaller bulk transfections are scaled accordingly, using this ratio. […] is dispensed into a sterile, tissue-culture treated 96-well plate (20,000 cells/well), and incubated at least 16 hours to allow expression. The cells are incubated in a 37° C.+5% CO2 incubator for >16 hrs. A serially diluted inhibitor or test compound is prepared at 100× final concentration in 100% DMSO. The serially diluted inhibitor stock is prepared in PCR plates. 1 μL per well of 100× serially diluted inhibitor/test compound is added to the cells in 96-well plates that have been transiently transfected overnight and mixed by tapping the plate by hand. The plate is incubated at 37° C.+5% CO2 incubator overnight. A 1× solution of substrate mix (500× stock) and appropriate concentration of tracer is prepared in Opti-Mem. The cells are washed by setting a plate washer to the 96 well plate 5× in PBS pH 7.4 by adding 200 μL PBS each time. The cells are incubated at 37° C. for 2 hours. […], of the 1× Substrate-Tracer solution is added and the 96 well plate is gently tapped to mix. The plate on plate reader is read every hour for the next 6 hours. The binding assays of some ARCS are shown below. Compound 1-XXXII formed a covalent bond with PI3-kinase from about 5% to 20%. ARCS selected from the group consisting of Compounds 1-101, 1-102, 1-113, 1-114, 1-119, 1-120, 1-125 and 1-126 formed a covalent bond with PI3-kinase from about 80% to 100%. […]
A general note: In BRET a luciferase serves as donor, and the signal depends on an acceptor being close.
Take `CC#CC(=O)CCC(=O)N1CCN(Cc2cc3c(N4CCOCC4)nc(-c4cnc(NC(=O)OC)cc4C(F)(F)F)nn3c2)CC1` [Compound 1-125]: the Binding result is listed as “+++ (>80%)”.

On to `C=CC(=O)NCC(=O)N1CCN(Cc2cc3c(N4CCOCC4)nc(-c4cnc(NC(=O)OC)cc4C(F)(F)F)nn3c2)CC1` [Compound 1-102], for which the Binding result was “+++ (>80%)”.

Regarding `COC(=O)Nc1cc(C(F)(F)F)c(-c2nc(N3CCOCC3)c3cc(CN4CCN(C(=O)CNC(=O)/C=C/CN(C)C)CC4)cn3n2)cn1` [Compound 1-120], the Binding result is recorded as “+++ (>80%)”.

On to `COC(=O)Nc1cc(C(F)(F)F)c(-c2nc(N3CCOCC3)c3cc(CN4CCN(C(=O)CCC(=O)C=C(C)C)CC4)cn3n2)cn1` [Compound 1-113], for which the Binding entry was “+++ (>80%)”.

As to `CC#CC(=O)NCC(=O)N1CCN(Cc2cc3c(N4CCOCC4)nc(-c4cnc(NC(=O)OC)cc4C(F)(F)F)nn3c2)CC1` [Compound 1-126], the Binding result is recorded as “+++ (>80%)”.

Take `COC(=O)Nc1cc(C(F)(F)F)c(-c2nc(N3CCOCC3)c3cc(CN4CCN(C(=O)CNC(=O)C=C(C)C)CC4)cn3n2)cn1` [Compound 1-114]: the Binding result is recorded as “+++ (>80%)”.

`C=CC(=O)Nc1ccc(CCNCc2cc3c(N4CCOCC4)nc(-c4cnc(NC(=O)OC)cc4C(F)(F)F)nn3c2)cc1` [Compound 1-172]: the Binding result is recorded as “++ (50-80%)”.

On to `COC(=O)Nc1cc(C(F)(F)F)c(-c2nc(N3CCOCC3)c3cc(CN4CCN(C(=O)CCC(=O)/C=C/CN(C)C)CC4)cn3n2)cn1` [Compound 1-119], for which the Binding result is on record as “+++ (>80%)”.

Take `C=CC(=O)CCC(=O)N1CCN(Cc2cc3c(N4CCOCC4)nc(-c4cnc(NC(=O)OC)cc4C(F)(F)F)nn3c2)CC1` [Compound 1-101]: the Binding entry is recorded as “+++ (>80%)”.

Take `C=CC(=O)Nc1ccc(C(=O)N2CCN(Cc3cc4c(N5CCOCC5)nc(-c5cnc(NC(=O)OC)cc5C(F)(F)F)nn4c3)CC2)cc1` [Compound 1-171]: the Binding entry is “++ (50-80%)”.
